The values below are quoted from earlier work in patent US4215038A, “Peptides which inhibit gonadal function” (The Salk Institute for Biological Studies, priority 1978, dated 1980).

Non-standard residues stand in square brackets, D forms with d. pGlu = O=C1CC[C@@H](C(=O)O)N1

For the data set, the system named is release of gonadotropins. The note with it: compared with the 6-Gly peptide.

With [pGlu]WSY[dA]LRPG-NH2, the “potency as an inhibitor for the release of gonadotropins relative to the same peptide with Gly in the 6-position” value was 3 times.
